Laboratory results from article PMC3644566 (Journal of chemical information and modeling, 2013).
pEC50: −log10 of the molar value.

Key:
[1] = tested on: P. falciparum 3D7 strain; assay: P. falciparum growth inhibition assay; assay type: cell-based; conditions: Plasmodium falciparum, 3D7, 72 h, read-out: consensus EC50
[2] = tested on: P. falciparum 3D7 or K1 strains; assay: P. falciparum growth inhibition assays of VS hits; assay type: cell-based, Plasmodium falciparum; conditions: against either 3D7 or K1 strains, most potent VS hit

| SMILES | pEC50 [1] | pEC50 [2] |
| --- | --- | --- |
| CCN(CC)CCCC(C)Nc1ccnc2cc(Cl)ccc12 (stereo not drawn) [chloroquine] | 7.57 | – |
| OC(c1cc(C(F)(F)F)nc2c(C(F)(F)F)cccc12)C1CCCCN1 (stereo not drawn) [mefloquine] | 7.40 | – |
| C=CC1CN2CCC1CC2C(OC(=O)C1CC1)c1ccnc2ccccc12 (stereo not drawn) [SJ000565000] | – | 7.02 |
